From US20100159093A1, “METHOD OF TREATING FOODSTUFF” (priority 2008, published 2010)

Key:
four Pseudomonas strains = details: 15° C., Eyles et al.; cited from earlier work
haemolytic bacteria = assay: Number of haemolytic bacteria in raw milk (blood culture dishes) under nitrogen gas; format: cell-based; details: 12.0° C., following four days of treatment
From the text: It is possible to measure the effectiveness of nitrogen gas for preventing growth of phospholipase for instance as a difference in the number of haemolytic microbes in the foodstuff or foodstuff material, which is an indication of the growth-preventing effect of the nitrogen gas, which effect is directed at the microbes, which produce phospholipase-transmitted virulence factors (see Example 6 below).
(§1) With the device shown in FIG. 1, the effect of nitrogen gas on the natural microflora in raw milk (volume approximately 125 ml) was examined by replacing the air (control) in an open vessel (volume approximately 250 ml) at a constant temperature, with a flow-through of 100% nitrogen gas (purity 99.999%, manufacturer AGA) at two different flow-through rates: N1=120 ml/min, N2=40 ml/min.
Two flow-through rates of the nitrogen gas were used in the study: (grey) 40 ml/min and (black) 120 ml/min.

[1] = test system: natural microflora in raw milk (total bacteria count); assay: Growth of the natural microflora (total bacteria count) in raw milk under nitrogen gas; format: cell-based
Procedure: With the device shown in FIG. 1, the effect of nitrogen gas on the natural microflora in raw milk (volume approximately 125 ml) was examined by replacing the air (control) in an open vessel (volume approximately 250 ml) at a constant temperature, with a flow-through of 100% nitrogen gas (purity 99.999%, manufacturer AGA) at two different flow-through rates: N1=120 ml/min, N2=40 ml/min. The apparatus comprises a nitrogen source (1), which is connected by means of a flow channel (2) to two sample bottles (3 and 4). The device also comprises a bottle (5) which contains a reference sample. Filters (6a, 6b, 7a, 7b and 8a, 8b) are connected to the gas flow channels (2), which are made of silicon pipe/hose. The pore size of the filters is 0.2 μm. A flow meter is attached to the flow channels (2), in order to allow the rate at which the gas flows are to be adjusted. The sample bottles are placed in a water bath (10). […] and magnetic mixers (12) are used to mix the contents of the bottles. The water of the water bath (10) is cooled with a cooling coil (11) which is connected to a cooling unit (13), and the entire test apparatus is placed in a cold store, the temperature of which is 5° C. (except the nitrogen bottle). The water temperature of the water bath (10) is adjusted to a desired temperature with the help of an adjustable submersible thermostat (14). The temperature of the raw milk in the sample bottles was adjusted by means of the thermostat (14) of the water bath to bring the temperature of the milk to 6.0° C., 7.0° C. or 12.0° C. The temperature variation in the vessel was less than ±0.1° C. […] The effect of nitrogen gas on the growth of the microflora in a raw milk sample at 6.0° C. Two flow-through rates of the nitrogen gas were used in the study: (▴) 40 ml/min and ([…])120 ml/min. […] The following bacterial levels were determined in the samples: The effect of nitrogen gas on the growth of the microflora in a raw milk sample at 7.0° C. Two flow-through rates of the nitrogen gas were used in the study: (▴) 40 ml/min and ([…])120 ml/min. […] The following bacterial levels were determined in the samples: The effect of nitrogen gas on the growth of the microflora in a raw milk sample at 12.0° C. Two flow-through rates of the nitrogen gas were used in the study: (▴) 40 ml/min and ([…]) 120 ml/min. […] The following bacterial levels were determined in the samples: […]

Bacillus cereus = assay: Number of Bacillus cereus bacteria in raw milk (MYP dish) under nitrogen gas; format: cell-based; details: 6.0° C., N2 environment (40 ml/min), after 7 days
Procedure: as §1
Two flow-through rates of the nitrogen gas were used in the study; (N2) 40 ml/min and (N1) 120 ml/min.

[2] = test system: bacteria producing phospholipase; assay: Number of phospholipase-producing bacteria (aerobic cultivation) in raw milk under nitrogen gas; format: cell-based
Procedure: as §1
The temperature of the raw milk in the sample bottles was adjusted by means of the thermostat (14) of the water bath to bring the temperature of the milk to 6.0° C., 7.0° C. or 12.0° C. The temperature variation in the vessel was less than ±0.1° C.
The effect of nitrogen gas on the growth of the microflora in a raw milk sample at 12.0° C. Two flow-through rates of the nitrogen gas were used in the study: (▴) 40 ml/min and ([…]) 120 ml/min. […] The following bacterial levels were determined in the samples:
FIGS. 7A-C show the effect, in three different samples of raw milk (samples A, B and C), of nitrogen gas at 6.0° C. on the number of the bacteria which produce phospholipase. Two flow-through rates of the nitrogen gas were used in the study: (▴) 40 ml/min, i.e. the N2 environment, and ([…]) 120 ml/min, i.e. the N1 environment.

[3] = test system: psychrotrophic bacteria in raw milk and lactic acid bacteria; details: 4° C., closed vessel, Murray et al.; cited from earlier work
[4] = 6.0° C., N2 environment (40 ml/min)
[5] = 12.0° C., N1 environment (120 ml/min), Example 4 sample

N#N [nitrogen gas]
inhibition of Pseudomonas strains (four Pseudomonas strains): did not establish that pure nitrogen is capable of significantly inhibiting | haemolytic microbes in the raw milk (haemolytic bacteria; N1 environment (120 ml/min)): none | haemolytic microbes, less than in the control environment (haemolytic bacteria; N2 environment (40 ml/min)): 2 log-units | growth of the bacteria ([1]; 6.0° C., N1 environment (120 ml/min), measurement period of 11 days): totally prevents the growth of the bacteria | growth of the microbes [1, 4]: capable of preventing the growth of the microbes for 7 days | increase of the microbe level during a period of 3 days [1, 4]: less than 1 log-unit | total growth/the growth of the microbes ([1]; 7.0° C., N1 environment (120 ml/min), prevents = log increases by less than one unit in 3 days): still prevents | growth of the total microbial count ([1]; 7.0° C., N2 environment (40 ml/min)): delays the growth of the total microbial count, although it cannot totally prevent the growth | growth of the total microbial count [1, 5]: still prevents or nearly prevents the growth of the total microbial count | growth of the total number of the microbes ([1]; 12.0° C., N1 environment (120 ml/min), Example 5 sample): substantially delay the growth of the total number of the microbes | elimination of bacteria of the B. cereus type from raw milk (Bacillus cereus): adequate for eliminating the bacteria of the B. cereus type | elimination of the bacteria which produce phospholipase ([2]; 6° C., N1 environment (120 ml/min), adequately long treatment period, three raw milk samples): possible to eliminate the bacteria which produce phospholipase | time from beginning of nitrogen gas treatment to elimination of microbes which produce phospholipase [2, 5]: ≤ 96 h | growth of the aerobic bacteria which secrete phospholipase ([2]; 12.0° C., N1 environment (120 ml/min), Examples 4 and 5, FIG. 5E): total prevention of growth | growth of the number of the microbes which produce phospholipase ([2]; 12.0° C., N2 environment (40 ml/min), Example 4 sample): ceases in the N2 environment after 3 days | growth of the aerobic bacteria which secrete phospholipase ([2]; 12.0° C., N2 environment (40 ml/min), after 2 days, FIG. 5E): total prevention of growth | growth-preventing effect on phospholipase-positive bacteria ([2]; at 7° C.): impossible to detect this effect | growth-preventing effect on phospholipase-positive bacteria ([2]; at 12° C.): the effect of the nitrogen gas was obvious | growth of the psychrotrophic bacteria in raw milk and of the lactic acid bacteria [3]: only slightly slowed down the growth | production of the proteolytic exoenzymes by the psychrotrophic bacteria [3]: effectively prevented the production
